Measured values published in patent US11110105B2, “Compounds, composition and uses thereof for treating cancer” (INSTITUT GUSTAVE ROUSSY, priority 2017, dated 2021).
Like-named read-outs stand apart in the source and are kept apart here.

Experiments:
[1] = test system: MCA205 globin-SL8-intron (MCA205 GI) tumors; experiment: Tumor challenge, MCA205 globin-SL8-intron in immunocompetent C57BL/6 mice; assay type: in vivo, mouse; conditions: for tumor growth: C57BL/6
Description: (A) Experimental settings. (B) MCA205 globin-SL8-intron cells were inoculated subcutaneously on the mice flank. Five days and fifteen days later, 6 mg/kg, 12 mg/kg or 18 mg/kg isoginkgetin was injected intraperitoneally. Tumor size was assessed every 3 to 4 days until day 27. Each line represents the tumor size in area (mm^2) of 6 mice in each group. Data are given as mean ±SEM. *p<0.05 (ANOVA with Tukey's multiple comparison test comparing all groups).
(A) Experimental settings. Growth of (B) sarcoma MCA205 or (C) melanoma B16F10 cells that both stably express the globin-SL8-intron construct or (D) MCA205 Wild Type (WT) or (E) B16F10 WT cells that were subcutaneously inoculated on the flank of immunocompetent C57BL/6 mice injected intraperitoneally with 12 mg/kg or 18 mg/kg of isoginkgetin at days 5, 10 and 15 after inoculation. Tumor size was assessed every 3 to 4 days until reaching the established ethical endpoints. Each line represents the tumor size in area (mm^2) of 6 mice in each group. Size in area (mm^2) of (F) MCA205 globin-SL8-intron, (G) B16F10 globin-SL8-intron, (H) MCA205 WT or (I) B16F10 WT tumors subcutaneously inoculated on the flank of immunodeficient Nu/Nu Nude mice injected intraperitoneally with 18 mg/kg of isoginkgetin at days 5, 10 and 15 after inoculation. Data are presented at the day before the endpoints are reached.
Data are given as mean ±SEM. *P<0.05, **P<0.01, ***P<0.001 (unpaired student t test). […] Tumor size was assessed every 3 to 4 days until reaching the established ethical endpoints. Each line represents the tumor size in area (mm^2) of at least 6 mice in each group. Data are given as mean ±SEM. *p<0.05, **p<0.01 (ANOVA with Tukey's multiple comparison test comparing all groups). […] A Log-rank (Mantel-Cox) test was performed.
C57B1/6J female mice are obtained from Harlan. NU/NU nude mouse mice are obtained from Charles River. At 7 weeks old, mice are injected subcutaneously on the right flank with 5×10^4 MCA205-Globin-SL8-intron cells or with 4×10^4 B16F10-Globin-SL8-intron cells along with matrigel (VWR). […] Fifteen days after challenge mouse are again treated intreaperitonealy with the same drug. Area of the tumor is recorded every 3 to 4 days until day 27. All animal experiments were carried out in compliance with French and European laws and regulations. Results are expressed as mean ±SEM. *p<0.05, **P<0.01, ***P<0.001 (ANOVA with Tukey's multiple comparison test comparing all groups).

[2] = test system: MCA205 globin-SL8-intron tumors; experiment: Tumor challenge, MCA205 globin-SL8-intron in immunodeficient Nu/Nu nude mice; assay type: in vivo, mouse; conditions: 18 mg/kg intraperitoneally
Description: (D) MCA205 globin-SL8-intron cells were inoculated subcutaneously on the […] mice flank. […] Tumor size was assessed every 3 to 4 days until day 27. Each line represents the tumor size in area (mm^2) of 6 mice in each group. Data are given as mean ±SEM. *p<0.05, **p<0.01 (ANOVA with Tukey's multiple comparison test comparing all groups). (E) MCA205 globin-SL8-intron cells were inoculated subcutaneously on the Nude nu/nu mice flank. […] Tumor size was assessed every 3 to 4 days until day 27. Each line represents the tumor size in area (mm^2) of 6 mice in each group. Data are given as mean ±SEM. (A) Experimental settings. Growth of (B) sarcoma MCA205 or (C) melanoma B16F10 cells that both stably express the globin-SL8-intron construct or (D) MCA205 Wild Type (WT) or (E) B16F10 WT cells that were subcutaneously inoculated on the flank of immunocompetent C57BL/6 mice injected intraperitoneally with 12 mg/kg or 18 mg/kg of isoginkgetin at days 5, 10 and 15 after inoculation. Tumor size was assessed every 3 to 4 days until reaching the established ethical endpoints. Each line represents the tumor size in area (mm^2) of 6 mice in each group. […] Area of the tumor is recorded every 3 to 4 days until day 27. […] Results are expressed as mean ±SEM. *[…] with Tukey's multiple comparison test comparing all groups).

[3] = Water solubility; assay type: physicochemical
[4] = 18 mg/kg intraperitoneally, days 5, 10 and 15
[5] = 18 mg/kg intraperitoneally, days 5 and 15

| Compound | survival (Kaplan Meier) ([1]; 18 mg/kg intraperitoneally) | tumor growth [1, 4] | tumor growth [1, 5] | tumor growth ([2]; days 5 and 15) | water solubility [3] | water solubility ([3]; listed as M2P2) | reduction of tumor growth at day 27 after challenge ([1]; 6 mg/kg intraperitoneally, days 5 and 15) [%] | reduction of tumor size at day 27 after challenge ([1]; 12 mg/kg intraperitoneally, days 5, 10 and 15) | reduction of tumor size at day 27 after challenge [1, 4] | reduction of tumor growth at day 27 after challenge [1, 5] [%] | survivors 100 days after tumor inoculation ([1]; 18 mg/kg intraperitoneally, Kaplan Meier) | tumor growth ([2]; days 5, 10 and 15) |
| --- | --- | --- | --- | --- | --- | --- | --- | --- | --- | --- | --- | --- |
| COc1ccc(-c2cc(=O)c3c(OC)cc(OP(=O)([O-])[O-])c(-c4cc(-c5cc(=O)c6c(OC)cc(OP(=O)([O-])[O-])cc6o5)ccc4OC)c3o2)cc1.[Na+].[Na+].[Na+].[Na+] [IM2P2] | does not impact survival | no impact | did not demonstrate any tumor growth decrease | any of the compounds used have an effect on the tumor growth | able to be dissolved in water | considerably higher than that of the parent compound isoginkgetin |  |  |  |  |  |  |
| COc1ccc(-c2cc(=O)c3c(O)cc(O)c(-c4cc(-c5cc(=O)c6c(O)cc(O)cc6o5)ccc4OC)c3o2)cc1 [Isoginkgetin, isoginkgetin] |  |  |  |  | insoluble in water |  | 50 | over 50% | over 50% | 50 | around 30% | No effect |
